# Test results: patent US12648926B2, “Dietary supplement comprising aldehyde functional monoterpenoids” (priority 2020, dated 2026)
# Values joined by “and” are separate entries in the source; they are usually repeats but may differ in a detail not shown here. Equal values may be shown once. Read-outs that look alike come from different tables or passages of the source.
# Tests used:
# [1] = tested on: EpiAirway™ (AIR-100) tissues; settings: for TEER Significant?: alpha 0.05
# [2] = tested on: EpiAirway™ (AIR-100) tissues
# [3] = tested on: EpiAirway™ (AIR-100) tissues; settings: H&E staining after 24-hour recovery
# [4] = post 24 hr recovery: Untreated Control vs treatment
# [5] = pre exposure vs post 24 hr recovery, same treatment
substance,measurement,setting,value
Triton X-100 [0.5% Triton],Effect on barrier function / TEER,[1]; 24-hour recovery,dropped completely
same,24 hr TEER Mean,"[1]; group mean n=3 tissues, after 24-hour recovery",8.6 Ohms*cm2
same,Pre-Exposure TEER Mean,"[1]; group mean n=3 tissues, before exposure",749.8 Ohms*cm2
same,24 hr TEER Ohms*cm2,"[1]; per tissue, after 24-hour recovery",9.0 Ohms*cm2 and 8.4 Ohms*cm2
same,Pre-Exposure TEER Ohms*cm2,"[1]; per tissue, before exposure",672.0 Ohms*cm2 and 832.8 Ohms*cm2 and 744.6 Ohms*cm2
same,"TEER Mean Diff., Tukey's multiple comparisons test",[1]; [4],628.6
same,TEER Significant?,[1]; [4],Yes
same,"TEER Mean Diff., Tukey's multiple comparisons test",[1]; [5],741.2
same,TEER Significant?,[1]; [5],Yes
same,"TEER statistics test details: group mean, pre exposure","[1]; pre exposure, N=3",749.8
same,24 hr TEER,"[1]; raw reading per tissue after 24-hour recovery, background 5 not subtracted",20 and 19
same,Pre-Exposure TEER,"[1]; raw reading per tissue before exposure, background 5 not subtracted",1125 and 1393 and 1246
same,Effect on tissue viability,"[2]; LDH assay, 24-hour time point",complete loss of viability
same,"LDH viability Mean Diff., Tukey's multiple comparisons test",[2]; Untreated Control vs treatment,100
same,LDH viability Significant?,"[2]; Untreated Control vs treatment, alpha 0.05",Yes
same,LDH Group Mean OD,"[2]; group mean n=3 tissues, 24-hour time point",1.125
same,% Viability Mean,"[2]; group mean n=3 tissues, LDH assay, 24-hour time point",0.0%
same,LDH Mean OD,"[2]; mean of duplicates per tissue, 24-hour time point",1.181 and 1.062 and 1.132
same,LDH statistics test details: group mean,"[2]; percent viability, 24-hour time point",−0.01667
same,Tissue morphology,[3],significant tissue disruption
